Data from PubChem BioAssay AID1745844 (Carcinogenic Potency Database (CPDB), 2022).
The source made the active and inactive calls. No rule for the calls is given here.

System: rodent lifetime carcinogenesis bioassay, tumor incidence TD50
Assay: chronic cancer bioassays in animals – CPDB, compiled studies (AID 1745844)

## O=C1OC2(c3ccccc31)c1cc(I)c(O)c(I)c1Oc1c2cc(I)c(O)c1I
mouse, strain Charles River CD1, females, in feed, site: any site (literature study), lesion: benign tumor, dosed 104 weeks, study length 104 weeks
  carcinogen call: negative (inactive)
mouse, strain Charles River CD1, females, in feed, site: any site (literature study), lesion: malignant tumor, dosed 104 weeks, study length 104 weeks
  carcinogen call: negative (inactive)
mouse, strain Charles River CD1, females, in feed, site: any site (literature study), lesion: several types, types named in the paper, dosed 104 weeks, study length 104 weeks
  carcinogen call: negative (inactive)
mouse, strain Charles River CD1, males, in feed, site: all sites, lesion: lymphocytic lymphoma, dosed 104 weeks, study length 104 weeks
  TD50: 3140 mg/kg/day (inactive)
mouse, strain Charles River CD1, males, in feed, site: any site (literature study), lesion: benign tumor, dosed 104 weeks, study length 104 weeks
  TD50: 25900 mg/kg/day (inactive)
mouse, strain Charles River CD1, males, in feed, site: any site (literature study), lesion: malignant tumor, dosed 104 weeks, study length 104 weeks
  TD50: 87600 mg/kg/day (inactive)
mouse, strain Charles River CD1, males, in feed, site: any site (literature study), lesion: several types, types named in the paper, dosed 104 weeks, study length 104 weeks
  TD50: 17000 mg/kg/day
rat, strain Osborne-Mendel, both sexes, by gavage, site: all sites, lesion: lymphosarcoma, dosed 85 weeks, study length 104 weeks
  TD50: 122 mg/kg/day (inactive)
rat, strain Osborne-Mendel, both sexes, by gavage, site: any site (literature study), lesion: malignant tumor, dosed 85 weeks, study length 104 weeks
  carcinogen call: negative (inactive)
rat, strain Osborne-Mendel, both sexes, by gavage, site: liver, lesion: one or several types, types not named, dosed 85 weeks, study length 104 weeks
  carcinogen call: negative (inactive)
rat, strain Osborne-Mendel, both sexes, in feed, site: any site (literature study), lesion: malignant tumor, dosed 86 weeks, study length 104 weeks
  TD50: 14100 mg/kg/day (inactive)
rat, strain Osborne-Mendel, both sexes, in feed, site: liver, lesion: hepatoma, dosed 86 weeks, study length 104 weeks
  TD50: 84900 mg/kg/day (inactive)
rat, strain Osborne-Mendel, females, in feed, site: any site (literature study), lesion: several types, types named in the paper, dosed 104 weeks, study length 104 weeks
  carcinogen call: negative (inactive)
rat, strain Osborne-Mendel, males, in feed, site: any site (literature study), lesion: several types, types named in the paper, dosed 104 weeks, study length 104 weeks
  TD50: 4810 mg/kg/day (inactive)
rat, strain Slc-Wistar, females, in feed, site: any site (literature study), lesion: several types, types named in the paper, dosed 52 weeks, study length 52 weeks
  carcinogen call: negative (inactive)
rat, strain Slc-Wistar, females, in feed, site: liver, lesion: one or several types, types not named, dosed 52 weeks, study length 52 weeks
  carcinogen call: negative (inactive)
rat, strain Slc-Wistar, males, in feed, site: any site (literature study), lesion: several types, types named in the paper, dosed 52 weeks, study length 52 weeks
  carcinogen call: negative (inactive)
rat, strain Slc-Wistar, males, in feed, site: liver, lesion: one or several types, types not named, dosed 52 weeks, study length 52 weeks
  carcinogen call: negative (inactive)
rat, strain Sprague-Dawley, females, in feed, site: any site (literature study), lesion: one or several types, types not named, dosed 52 weeks, study length 52 weeks
  carcinogen call: negative (inactive)
rat, strain Sprague-Dawley, females, in feed, site: liver, lesion: one or several types, types not named, dosed 52 weeks, study length 52 weeks
  carcinogen call: negative (inactive)

## O=NN1CCCCCCC1
rat, strain Fischer 344, males, in drinking water, site: esophagus, lesion: basal-cell carcinoma, dosed 50 weeks, study length 125 weeks
  TD50: 0.159 mg/kg/day
rat, strain Fischer 344, males, in drinking water, site: esophagus, lesion: several types, types named in the paper, dosed 25 weeks, study length 115 weeks
  TD50: 0.118 mg/kg/day
rat, strain Fischer 344, males, in drinking water, site: esophagus, lesion: several types, types named in the paper, dosed 100 weeks, study length 115 weeks
  TD50: 0.0735 mg/kg/day
rat, strain Fischer 344, males, in drinking water, site: liver, lesion: hepatocellular carcinoma, dosed 50 weeks, study length 125 weeks
  carcinogen call: positive
rat, strain Fischer 344, males, in drinking water, site: liver, lesion: several types, types named in the paper, dosed 100 weeks, study length 115 weeks
  TD50: 0.198 mg/kg/day
rat, strain Fischer 344, males, in drinking water, site: tongue, lesion: basal-cell carcinoma, dosed 50 weeks, study length 125 weeks
  TD50: 0.171 mg/kg/day
rat, strain Fischer 344, males, in drinking water, site: tongue, lesion: basal-cell carcinoma, dosed 100 weeks, study length 115 weeks
  TD50: 0.105 mg/kg/day
rat, strain Fischer 344, males, in drinking water, site: upper gastrointestinal tract, lesion: carcinoma, dosed 25 weeks, study length 115 weeks
  TD50: 0.0363 mg/kg/day
rat, strain Fischer 344, males, in drinking water, site: upper gastrointestinal tract, lesion: several types, types named in the paper, dosed 25 weeks, study length 115 weeks
  TD50: 0.0512 mg/kg/day
rat, strain Fischer 344, males, in drinking water, site: upper gastrointestinal tract, lesion: several types, types named in the paper, dosed 50 weeks, study length 125 weeks
  TD50: 0.0571 mg/kg/day
rat, strain Fischer 344, males, in drinking water, site: upper gastrointestinal tract, lesion: several types, types named in the paper, dosed 100 weeks, study length 115 weeks
  TD50: 0.0292 mg/kg/day

## C/C=C/C=O
rat, strain Charles River, males, in drinking water, site: liver, lesion: neoplastic nodule, dosed 113 weeks, study length 113 weeks
  TD50: 4.2 mg/kg/day
rat, strain Charles River, males, in drinking water, site: liver, lesion: several types, types named in the paper, dosed 113 weeks, study length 113 weeks
  TD50: 4.2 mg/kg/day

## COc1cc2c(c3c1c(=O)c1ccccc1n3C)C=CC(C)(C)O2
mouse, strain B6C3F1, females, i.p., site: liver, lesion: hepatocellular adenoma + hepatocellular carcinoma + neoplastic nodule, dosed 48 weeks, study length 78 weeks
  TD50: 2.46 mg/kg/day
mouse, strain B6C3F1, females, i.p., site: lung, lesion: alveolar/bronchiolar adenoma + alveolar/bronchiolar carcinoma, dosed 48 weeks, study length 78 weeks
  TD50: 2.46 mg/kg/day
rat, strain Sprague-Dawley, females, i.p., site: any site (literature study), lesion: several types, types named in the paper, dosed 52 weeks, study length 80 weeks
  TD50: 0.568 mg/kg/day
rat, strain Sprague-Dawley, females, i.p., site: liver, lesion: hepatocellular adenoma + hepatocellular carcinoma + neoplastic nodule, dosed 52 weeks, study length 80 weeks
  TD50: 8.75 mg/kg/day
rat, strain Sprague-Dawley, females, i.p., site: mammary gland + peritoneum, lesion: adenocarcinoma, NOS + cystadenocarcinoma, NOS + cystadenoma, NOS + fibroadenoma + papillary adenocarcinoma + fibrosarcoma + mesothel, dosed 52 weeks, study length 80 weeks
  TD50: 0.873 mg/kg/day
rat, strain Sprague-Dawley, females, i.p., site: mammary gland, lesion: adenocarcinoma, NOS + cystadenocarcinoma, NOS + cystadenoma, NOS + fibroadenoma + papillary adenocarcinoma, dosed 52 weeks, study length 80 weeks
  TD50: 0.395 mg/kg/day
rat, strain Sprague-Dawley, females, i.p., site: mammary gland, lesion: fibroadenoma, dosed 52 weeks, study length 80 weeks
  TD50: 0.455 mg/kg/day
rat, strain Sprague-Dawley, females, i.p., site: peritoneum, lesion: fibrosarcoma + mesothelioma, malignant + sarcoma, NOS, dosed 52 weeks, study length 80 weeks
  TD50: 5.86 mg/kg/day
rat, strain Sprague-Dawley, females, i.p., site: peritoneum, lesion: sarcoma, NOS, dosed 52 weeks, study length 80 weeks
  TD50: 11.4 mg/kg/day
rat, strain Sprague-Dawley, males, i.p., site: adrenal gland, lesion: cortical adenoma, dosed 51 weeks, study length 80 weeks
  TD50: 1.85 mg/kg/day
rat, strain Sprague-Dawley, males, i.p., site: all sites + bone + peritoneum + vertebra, lesion: osteosarcoma + fibrosarcoma + mesothelioma, NOS + mesothelioma, malignant + sarcoma, NOS, dosed 51 weeks, study length 80 weeks
  TD50: 0.497 mg/kg/day
rat, strain Sprague-Dawley, males, i.p., site: all sites, lesion: osteosarcoma, dosed 51 weeks, study length 80 weeks
  TD50: 0.698 mg/kg/day
rat, strain Sprague-Dawley, males, i.p., site: any site (literature study), lesion: several types, types named in the paper, dosed 51 weeks, study length 80 weeks
  TD50: 0.227 mg/kg/day
rat, strain Sprague-Dawley, males, i.p., site: bone + vertebra, lesion: osteosarcoma, dosed 51 weeks, study length 80 weeks
  TD50: 1.03 mg/kg/day
rat, strain Sprague-Dawley, males, i.p., site: liver, lesion: hepatocellular adenoma + hepatocellular carcinoma + neoplastic nodule, dosed 51 weeks, study length 80 weeks
  TD50: 2.11 mg/kg/day
rat, strain Sprague-Dawley, males, i.p., site: peritoneum, lesion: fibrosarcoma + mesothelioma, NOS + mesothelioma, malignant + sarcoma, NOS, dosed 51 weeks, study length 80 weeks
  TD50: 1.49 mg/kg/day

## CN(C)CCN(Cc1ccsc1)c1ccccn1
rat, strain Fischer 344, females, in drinking water, site: liver, lesion: several types, types named in the paper, dosed 80 weeks, study length 130 weeks
  carcinogen call: negative (inactive)
rat, strain Fischer 344, females, in drinking water, site: thyroid follicle, lesion: several types, types named in the paper, dosed 80 weeks, study length 130 weeks
  TD50: 10700 mg/kg/day (inactive)
rat, strain Fischer 344, males, in drinking water, site: liver, lesion: several types, types named in the paper, dosed 80 weeks, study length 130 weeks
  TD50: 96.8 mg/kg/day (inactive)
rat, strain Fischer 344, males, in drinking water, site: thyroid follicle, lesion: several types, types named in the paper, dosed 80 weeks, study length 130 weeks
  carcinogen call: negative (inactive)

## Clc1ccccc1
mouse, strain B6C3F1, females, by gavage, site: any site (literature study), lesion: several types, types named in the paper, dosed 103 weeks, study length 105 weeks
  TD50: 373 mg/kg/day (inactive)
mouse, strain B6C3F1, females, by gavage, site: liver, lesion: hepatocellular adenoma + hepatocellular carcinoma + neoplastic nodule, dosed 103 weeks, study length 105 weeks
  TD50: 235 mg/kg/day
mouse, strain B6C3F1, females, by gavage, site: lung, lesion: alveolar/bronchiolar adenoma + alveolar/bronchiolar carcinoma, dosed 103 weeks, study length 105 weeks
  TD50: 623 mg/kg/day
mouse, strain B6C3F1, males, by gavage, site: any site (literature study), lesion: several types, types named in the paper, dosed 103 weeks, study length 105 weeks
  TD50: 60.1 mg/kg/day (inactive)
mouse, strain B6C3F1, males, by gavage, site: liver, lesion: hepatocellular adenoma + hepatocellular carcinoma + neoplastic nodule, dosed 103 weeks, study length 105 weeks
  TD50: 382 mg/kg/day
mouse, strain B6C3F1, males, by gavage, site: lung, lesion: alveolar/bronchiolar adenoma + alveolar/bronchiolar carcinoma, dosed 103 weeks, study length 105 weeks
  TD50: 190 mg/kg/day
rat, strain Fischer 344, females, by gavage, site: liver, lesion: hepatocellular adenoma + hepatocellular carcinoma + neoplastic nodule, dosed 103 weeks, study length 104 weeks
  TD50: 867 mg/kg/day
rat, strain Fischer 344, females, by gavage, site: parathyroid + thyroid gland + thyroid follicle, lesion: adenoma, NOS + follicular-cell carcinoma + cystadenoma, NOS, dosed 103 weeks, study length 104 weeks
  TD50: 520 mg/kg/day (inactive)
rat, strain Fischer 344, males, by gavage, site: any site (literature study), lesion: several types, types named in the paper, dosed 103 weeks, study length 104 weeks
  TD50: 190 mg/kg/day
rat, strain Fischer 344, males, by gavage, site: liver, lesion: hepatocellular adenoma + hepatocellular carcinoma + neoplastic nodule, dosed 103 weeks, study length 104 weeks
  TD50: 328 mg/kg/day
rat, strain Fischer 344, males, by gavage, site: liver, lesion: neoplastic nodule, dosed 103 weeks, study length 104 weeks
  TD50: 247 mg/kg/day
